Reference: the supplement of paper PMC8671470

system: SHI-1; assay: cell viability (% survival relative to DMSO control, bortezomib = 0%); higher = less cytotoxic; conditions: 100 nM; 72 h
In short: (§1)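 In 384-well plates pre-printed with compounds at 1, 10, 100, 1000 or 10000 nM, duplicate wells received cells from 10 AML and 5 CML lines at densities within the linear growth range. The plates stayed at 37 °C with 5% CO2 for 72 h before CellTiter-Glo luminescence was recorded. Each entry is averaged percent survival. Scaling placed vehicle at 100% and a 10 µM positive control at 0%.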

Structure (SMILES) | cell viability [%]
C=C(C)[C@H]1Cc2c(ccc3c2O[C@@H]2COc4cc(OC)c(OC)cc4[C@@H]2C3=O)O1 [Rotenone] | 73.7
Oc1ccc(Nc2nc(-c3ccc(Cl)cc3)cs2)cc1 [SKI II] | 99.7
O=C(O)c1cc(N=Nc2ccc(S(=O)(=O)Nc3ccccn3)cc2)ccc1O [Sulfasalazine] | 114

same assay, conditions: 1000 nM; 72 h

Structure (SMILES) | cell viability [%]
CCCCN1C[C@H](O)[C@@H](O)[C@H](O)[C@H]1CO [Miglustat] | 98.6
C=C(C=NNC(=N)N)NNC(=N)N [Mitoguazone] | 59.8
CCCCC/C=C\C/C=C\C/C=C\C/C=C\CCCCN1C(=O)C=CC1=O [N-Arachidonylmaleimide] | 104
CCCCCCCCCCC[C@@H](C[C@@H]1OC(=O)[C@H]1CCCCCC)OC(=O)[C@H](CC(C)C)NC=O [Orlistat] | 108
COc1ccc(C(=O)Nc2c(Cl)cncc2Cl)cc1OC1CCCC1 [Piclamilast] | 99.3
COc1cc(/C=C/C(=O)N2CCC=CC2=O)cc(OC)c1OC [Piperlongumine] | 89
O=C(NNc1ccccc1)c1ccncc1 [PluriSln 1] | 105
CC(C)c1nc(CN(C)C(=O)N[C@H](C(=O)N[C@@H](Cc2ccccc2)C[C@H](O)[C@H](Cc2ccccc2)NC(=O)OCc2cncs2)C(C)C)cs1 [Ritonavir] | 104
C=C(C)[C@H]1Cc2c(ccc3c2O[C@@H]2COc4cc(OC)c(OC)cc4[C@@H]2C3=O)O1 [Rotenone] | 4.23
Oc1ccc(Nc2nc(-c3ccc(Cl)cc3)cs2)cc1 [SKI II] | 96
O=C(O)c1cc(N=Nc2ccc(S(=O)(=O)Nc3ccccn3)cc2)ccc1O [Sulfasalazine] | 97.8

same assay, conditions: 10000 nM; 72 h

Structure (SMILES) | cell viability [%]
CCCCN1C[C@H](O)[C@@H](O)[C@H](O)[C@H]1CO [Miglustat] | 88.7
C=C(C=NNC(=N)N)NNC(=N)N [Mitoguazone] | 20.6
CCCCC/C=C\C/C=C\C/C=C\C/C=C\CCCCN1C(=O)C=CC1=O [N-Arachidonylmaleimide] | 88.9
CCCCCCCCCCC[C@@H](C[C@@H]1OC(=O)[C@H]1CCCCCC)OC(=O)[C@H](CC(C)C)NC=O [Orlistat] | 102
COc1ccc(C(=O)Nc2c(Cl)cncc2Cl)cc1OC1CCCC1 [Piclamilast] | 113
COc1cc(/C=C/C(=O)N2CCC=CC2=O)cc(OC)c1OC [Piperlongumine] | 0.583
O=C(NNc1ccccc1)c1ccncc1 [PluriSln 1] | 92.6
CC(C)c1nc(CN(C)C(=O)N[C@H](C(=O)N[C@@H](Cc2ccccc2)C[C@H](O)[C@H](Cc2ccccc2)NC(=O)OCc2cncs2)C(C)C)cs1 [Ritonavir] | 83.1
C=C(C)[C@H]1Cc2c(ccc3c2O[C@@H]2COc4cc(OC)c(OC)cc4[C@@H]2C3=O)O1 [Rotenone] | 5.24
Oc1ccc(Nc2nc(-c3ccc(Cl)cc3)cs2)cc1 [SKI II] | 53.3
O=C(O)c1cc(N=Nc2ccc(S(=O)(=O)Nc3ccccn3)cc2)ccc1O [Sulfasalazine] | 95.7

system: THP-1; assay: as above; conditions: 1 nM; 72 h
In short: as §1

Structure (SMILES) | cell viability [%]
CCCCN1C[C@H](O)[C@@H](O)[C@H](O)[C@H]1CO [Miglustat] | 91.1
C=C(C=NNC(=N)N)NNC(=N)N [Mitoguazone] | 101
CCCCC/C=C\C/C=C\C/C=C\C/C=C\CCCCN1C(=O)C=CC1=O [N-Arachidonylmaleimide] | 102
CCCCCCCCCCC[C@@H](C[C@@H]1OC(=O)[C@H]1CCCCCC)OC(=O)[C@H](CC(C)C)NC=O [Orlistat] | 97.5
COc1ccc(C(=O)Nc2c(Cl)cncc2Cl)cc1OC1CCCC1 [Piclamilast] | 94
COc1cc(/C=C/C(=O)N2CCC=CC2=O)cc(OC)c1OC [Piperlongumine] | 103
O=C(NNc1ccccc1)c1ccncc1 [PluriSln 1] | 97.2
CC(C)c1nc(CN(C)C(=O)N[C@H](C(=O)N[C@@H](Cc2ccccc2)C[C@H](O)[C@H](Cc2ccccc2)NC(=O)OCc2cncs2)C(C)C)cs1 [Ritonavir] | 97.1
C=C(C)[C@H]1Cc2c(ccc3c2O[C@@H]2COc4cc(OC)c(OC)cc4[C@@H]2C3=O)O1 [Rotenone] | 98.9
Oc1ccc(Nc2nc(-c3ccc(Cl)cc3)cs2)cc1 [SKI II] | 100
O=C(O)c1cc(N=Nc2ccc(S(=O)(=O)Nc3ccccn3)cc2)ccc1O [Sulfasalazine] | 107

same assay, conditions: 10 nM; 72 h

Structure (SMILES) | cell viability [%]
CCCCN1C[C@H](O)[C@@H](O)[C@H](O)[C@H]1CO [Miglustat] | 93.3
C=C(C=NNC(=N)N)NNC(=N)N [Mitoguazone] | 104
CCCCC/C=C\C/C=C\C/C=C\C/C=C\CCCCN1C(=O)C=CC1=O [N-Arachidonylmaleimide] | 99.2
CCCCCCCCCCC[C@@H](C[C@@H]1OC(=O)[C@H]1CCCCCC)OC(=O)[C@H](CC(C)C)NC=O [Orlistat] | 99
COc1ccc(C(=O)Nc2c(Cl)cncc2Cl)cc1OC1CCCC1 [Piclamilast] | 104
COc1cc(/C=C/C(=O)N2CCC=CC2=O)cc(OC)c1OC [Piperlongumine] | 93.9
O=C(NNc1ccccc1)c1ccncc1 [PluriSln 1] | 97.1
CC(C)c1nc(CN(C)C(=O)N[C@H](C(=O)N[C@@H](Cc2ccccc2)C[C@H](O)[C@H](Cc2ccccc2)NC(=O)OCc2cncs2)C(C)C)cs1 [Ritonavir] | 91.7
C=C(C)[C@H]1Cc2c(ccc3c2O[C@@H]2COc4cc(OC)c(OC)cc4[C@@H]2C3=O)O1 [Rotenone] | 104
Oc1ccc(Nc2nc(-c3ccc(Cl)cc3)cs2)cc1 [SKI II] | 96.8
O=C(O)c1cc(N=Nc2ccc(S(=O)(=O)Nc3ccccn3)cc2)ccc1O [Sulfasalazine] | 101

same assay, conditions: 100 nM; 72 h

Structure (SMILES) | cell viability [%]
CCCCN1C[C@H](O)[C@@H](O)[C@H](O)[C@H]1CO [Miglustat] | 89.6
C=C(C=NNC(=N)N)NNC(=N)N [Mitoguazone] | 94.9
CCCCC/C=C\C/C=C\C/C=C\C/C=C\CCCCN1C(=O)C=CC1=O [N-Arachidonylmaleimide] | 101
CCCCCCCCCCC[C@@H](C[C@@H]1OC(=O)[C@H]1CCCCCC)OC(=O)[C@H](CC(C)C)NC=O [Orlistat] | 85.2
COc1ccc(C(=O)Nc2c(Cl)cncc2Cl)cc1OC1CCCC1 [Piclamilast] | 97.6
COc1cc(/C=C/C(=O)N2CCC=CC2=O)cc(OC)c1OC [Piperlongumine] | 101
O=C(NNc1ccccc1)c1ccncc1 [PluriSln 1] | 100
CC(C)c1nc(CN(C)C(=O)N[C@H](C(=O)N[C@@H](Cc2ccccc2)C[C@H](O)[C@H](Cc2ccccc2)NC(=O)OCc2cncs2)C(C)C)cs1 [Ritonavir] | 107
C=C(C)[C@H]1Cc2c(ccc3c2O[C@@H]2COc4cc(OC)c(OC)cc4[C@@H]2C3=O)O1 [Rotenone] | 76.2
Oc1ccc(Nc2nc(-c3ccc(Cl)cc3)cs2)cc1 [SKI II] | 103
O=C(O)c1cc(N=Nc2ccc(S(=O)(=O)Nc3ccccn3)cc2)ccc1O [Sulfasalazine] | 106

same assay, conditions: 1000 nM; 72 h

Structure (SMILES) | cell viability [%]
CCCCN1C[C@H](O)[C@@H](O)[C@H](O)[C@H]1CO [Miglustat] | 102
C=C(C=NNC(=N)N)NNC(=N)N [Mitoguazone] | 76.1
CCCCC/C=C\C/C=C\C/C=C\C/C=C\CCCCN1C(=O)C=CC1=O [N-Arachidonylmaleimide] | 97.7
